Test [1] deals with P. falciparum FcM29-Cameroon strain. Put plainly: Antimalarial chemosensitivity test (radioactive micromethod, tritiated hypoxanthine incorporation) on FcM29-Cameroon strain. Format: cell-based. The conditions noted are these: Plasmodium falciparum, Erythrocyte, read-out: IC50 (concentration required to inhibit parasite growth by 50%). On the procedure:
(§1) The P. falciparum strains are cultured continuously according to the method of Trager and Jensen (Science, 1976, 193, 673-675): the parasites are maintained in human red blood cells (O±), diluted to a blood parasite level of 2% in RPMI 1640 medium supplemented with 25 mM of Hepes+24 mM NaHCO3+2 mM L-glutamine and with 5% of human serum of all groups. The parasites are incubated at 37° C. in a humid atmosphere and at 5% CO2.
The antimalarial activity tests are carried out according to the radioactive micromethod of Desjardins et al. (Antimicrob. Agents Chemother., 1979, 16, 710-718). Each molecule is tested in triplicate. The assays are carried out in 96-well microplates. The P. falciparum strains are cultured in solutions of RPMI 1640 supplemented with 5% of human serum with a haematocrit at 2% and a blood parasite level at 1.5%. For each assay, the parasites are incubated with decreasing concentrations of the test compounds for 48 h at 37° C., in a humid atmosphere and at 5% CO2. Artemisinin and chloroquine diphosphate are used as reference molecules. The first dilution of the test compounds is effected at 1 mg/ml in dimethyl sulphoxide. The dilution range for the successive daughter solutions is also prepared in dimethyl sulphoxide. Each daughter dilution is then diluted to 1/50th in RPMI 1640 supplemented with 5% of human serum, all the dilutions being carried out at 37° C. These dilutions are then added to the parasites in culture in the microplates. After addition of the test compound, the parasites are cultured in RPMI 1640 containing 5% of human serum and 1% of dimethyl sulphoxide. The parasite growth is measured by incorporation of tritiated hypoxanthine (added 24 h after the beginning of exposure to the test compound) and compared to the incorporation in the absence of the test compound (taken as 100%). The IC50 values (concentrations required to inhibit parasite growth by 50%) are determined by plotting the percentage inhibition as a function of the logarithm of the dose, using the GraphPad Prism 4® processing software (GraphPad Software Inc., 5755 Oberlin Drive, #110, San Diego, Calif. 92121, USA).

Test [2] concerns P. falciparum FcB1-Columbia strain. Put plainly: Antimalarial chemosensitivity test (radioactive micromethod, tritiated hypoxanthine incorporation) on FcB1-Columbia strain. The format is cell-based. The conditions noted are these: Plasmodium falciparum, read-out: IC50 (concentration required to inhibit parasite growth by 50%). On the procedure: as §1
The antimalarial activity tests are carried out according to the radioactive micromethod of Desjardins et al. (Antimicrob. Agents Chemother., 1979, 16, 710-718). Each molecule is tested in triplicate. The assays are carried out in 96-well microplates. The P. falciparum strains are cultured in solutions of RPMI 1640 supplemented with 5% of human serum with a haematocrit at 2% and a blood parasite level at 1.5%. For each assay, the parasites are incubated with decreasing concentrations of the test compounds for 48 h at 37° C., in a humid atmosphere and at 5% CO2. Artemisinin and chloroquine diphosphate are used as reference molecules. The first dilution of the test compounds is effected at 1 mg/ml in dimethyl sulphoxide. […] The parasite growth is measured by incorporation of tritiated hypoxanthine (added 24 h after the beginning of exposure to the test compound) and compared to the incorporation in the absence of the test compound (taken as 100%). […]

pIC50: −log10 of the molar value. Read-outs that look alike come from different tables or passages of the source.

On to `C[C@@H]1CC[C@H]2[C@@H](C)C(=O)O[C@@H]3O[C@@]4(C)CC[C@@H]1[C@]32OO4` [artemisinin], for which the pIC50 was 8.30 in test [1] (FcM29-Cameroon strain (very strongly chloroquine resistant), in human red blood cells, 48 h incubation) and 7.96 in test [2] (Erythrocyte, FcB1-Columbia strain (moderately chloroquine resistant), in human red blood cells, 48 h incubation).
In the case of `CC(C)C1=C[C@H]2OC3(CCN(CCCNc4ccnc5cc(Cl)ccc45)CC3)OO[C@@]2(C)CC1` [PA1011], the pIC50 in test [1] (48 h) is 7.89.
For `CN(C)c1ccc2nccc(NCCN3CCC4(CC3)OOC3(O4)C4CC5CC(C4)CC3C5)c2c1` (stereo not shown) [PA1026, N^4-[2-(1H-Dispiro[piperidine-4,3,-[1,2,4]trioxolane-5′,2″-tricyclo[3.3.1.1^3,7]decan]-1-yl)ethyl]-N^6,N^6-dimethylquinoline-4,6-diamine], in test [1] (48 h), the pIC50 was 8.36.
For the molecule `Clc1ccc2c(NCCN3CCC4(CC3)OOC3(O4)C4CC5CC(C4)CC3C5)ccnc2c1` (stereo not shown) [PA1021, 7-Chloro-N-[2-(1H-dispiro[piperidine-4,3′-[1,2,4]trioxolane-5′,2″-tricyclo[3.3.1.1^3,7]decan]-1-yl)ethyl]quinolin-4-amine], the pIC50 in test [1] (48 h) was 8.22.
Consider `CCN(CC)CCCC(C)Nc1ccnc2cc(Cl)ccc12` (stereo not shown) [chloroquine], for which the pIC50 was 6.59 in test [1] (48 h) and 7.18 in test [2] (FCB1, Erythrocyte, 48 h).
